Test results reported in US20180155757A1, “IDENTIFICATION OF BACTERIA THAT ARE RESISTANT TO CARBAPENEMS BY MEMBRANE IMPERVIOUSNESS” (BIOMÉRIEUX, priority 2015, published 2018).
Read-outs that look alike come from different tables or passages of the source.

Columns and labels:
[1] = test system: carbapenem-resistant bacterial strains
Source text: For each strain tested, each PMBN concentration and each indicator carbapenem, the MIC measured is compared to that obtained in the absence of PMBN. In the light of the possible difference in MIC values, a prognosis for the mechanism of resistance developed by the strain tested is established by applying the following general premise: A decrease in MICIM/ETP in the presence of PMBN is an indication of carbapenem resistance by membrane impermeability. In any other case, another mechanism of resistance is implicated.
For the purposes of verifying the accuracy of the prognoses established and the relevance of the general premise mentioned above: • each strain was tested by Western blot with the view to detection of porins (in the case in point, of the OmpF and OmpC isoforms), and • for some of the strains tested, in particular those for which there remains a doubt as to the mechanism of resistance developed (prognosis established in contradiction with the results of the porin detection by Western blot), a test for detecting carbapenemases by means of the RAPIDEC® CARBA NP kit (bioMérieux, France) was also carried out.
As regards the results thus obtained, the characterization of the strains termed carbapenem resistant by membrane impermeability is established either by the absence of porins detected by Western blot, or by carbapenem resistance that is not linked to the presence of carbapenemase, verified by a molecular method (PCR) and/or by a phenotypic method (RAPIDEC® CARBA NP).
A second method of interpretation of the results compiled in table 3 is proposed here. The prognosis system is based on the following “refined” premise: A decrease in MICIM/ETP, in the presence of PMBN, by at least a factor of 4 (that is to say with a difference in MIC of 2 doubling dilutions), is the signal of carbapenem resistance by membrane impermeability. If not, another mechanism of resistance is implicated.

[2] = test system: E. cloacae 1101172 (NDM producer); experiment: Etest MIC of indicator carbapenems on MH II agar without/with PMBN; type: cell-based
Protocol: (§1) The determinations of antibiotic MIC were carried out on solid culture media with the Etest® method. To do this, Etest® strips (bioMérieux, France) were used: • Etest® Imipenem IM 32, and • Etest® Ertapenem ETP 32, and also solid culture media, differing from one another by virtue of their non-inhibitory concentrations of PMBN.
(§2) These solid culture media are prepared in Petri dishes (0=145 mm; V=50 ml) on a base of MH II Agar (Becton Dickinson®, United States), more or less supplemented with PMBN. The PMBN concentrations range from 0 up to concentrations equivalent to one fifth of the MIC of PMBN (⅕ MICPMBN).
(§3) Using a swab and the Retro C80™ rota-plater (bioMérieux, France), the culture media were inoculated with the bacteria, originating from an inoculum of 0.5 McFarland, prepared in 0.85% NaCl solution from colonies subcultured the day before on MH II agar.
(§4) The various Etest® strips are then deposited on the surface of the culture media. After 16 to 20 hours of incubation at 35° C., the MICS were read.
(§5) To do this, imipenem and ertapenem were used as indicator carbapenems. Non-inhibitory concentrations of PMBN, equivalent to concentrations of one tenth ( 1/10), one eighth (⅛) and one fifth (⅕) of the MIC of PMBN, were applied.

[3] = test system: E. cloacae 1008096 (VIM-1 producer); experiment: as above; type: cell-based
Protocol: as §1, §2, §3, §4, §5

[4] = test system: C. freundii 0403012; experiment: as above; type: cell-based
Protocol: as §1, §2, §3, §4, §5

[5] = test system: E. coli 0506040 (VIM-1 producer); experiment: as above; type: cell-based
Protocol: as §1, §2, §3, §4, §5

[6] = test system: E. cloacae 9304026; experiment: as above; type: cell-based
Protocol: as §1, §2, §3, §4, §5

[7] = test system: E. cloacae 1008073 (VIM-1 producer); experiment: as above; type: cell-based
Protocol: as §1, §2, §3, §4, §5

[8] = test system: K. pneumoniae 1108007 (VIM-1 producer); experiment: as above; type: cell-based
Protocol: as §1, §2, §3, §4, §5

[9] = test system: E. coli 1012292 (KPC-2 producer); experiment: as above; type: cell-based
Protocol: as §1, §2, §3, §4, §5

[10] = test system: K. pneumoniae 1108006 (KPC-2 producer); experiment: as above; type: cell-based
Protocol: as §1, §2, §3, §4, §5

[11] = test system: E. coli 1008077 (VIM-1 producer); experiment: as above; type: cell-based
Protocol: as §1, §2, §3, §4, §5

[12] = test system: E. cloacae 0901026 (KPC-2 producer); experiment: as above; type: cell-based
Protocol: as §1, §2, §3, §4, §5

[13] = test system: K. pneumoniae 1108016 (VIM-1 producer); experiment: as above; type: cell-based
Protocol: as §1, §2, §3, §4, §5

[14] = test system: S. marcescens 1008175 (IMP-1 producer); experiment: as above; type: cell-based
Protocol: as §1, §2, §3, §4, §5

[15] = test system: K. pneumoniae 0901027 (KPC-3 producer); experiment: as above; type: cell-based
Protocol: as §1, §2, §3, §4, §5

Structure (SMILES): C[C@@H](O)[C@H]1C(=O)N2C(C(=O)O)=C(S[C@@H]3CN[C@H](C(=O)Nc4cccc(C(=O)O)c4)C3)[C@H](C)[C@H]12 [ETP, ertapenem]
- reliability of a negative prognosis with regard to resistance by membrane impermeability ([1]; general premise): 90%
- reliability of a positive prognosis with regard to resistance by membrane impermeability ([1]; general premise): 66%
- reliability of a negative prognosis with regard to resistance by membrane impermeability ([1]; refined premise): 85%
- reliability of a positive prognosis with regard to resistance by membrane impermeability ([1]; refined premise): 86%
- MIC ([2]; [PMBN] 0): 4 mg/L
- MIC ([2]; [PMBN] MIC/5): 4 mg/L
- MIC ([2]; [PMBN] MIC/8): 8 mg/L
- MIC ([2]; [PMBN] MIC/10): 8 mg/L
- MIC ([3]; [PMBN] 0): 4 mg/L
- MIC ([3]; [PMBN] MIC/5): 4 mg/L
- MIC ([3]; [PMBN] MIC/8): 4 mg/L
- MIC ([3]; [PMBN] MIC/10): 4 mg/L
- MIC ([4]; [PMBN] 0): 8 mg/L
- MIC ([4]; [PMBN] MIC/5): 4 mg/L
- MIC ([4]; [PMBN] MIC/8): 4 mg/L
- MIC ([4]; [PMBN] MIC/10): 8 mg/L
- MIC ([5]; [PMBN] 0): 0.25 mg/L
- MIC ([5]; [PMBN] MIC/5): 0.25 mg/L
- MIC ([5]; [PMBN] MIC/8): 0.25 mg/L
- MIC ([5]; [PMBN] MIC/10): 0.25 mg/L
- MIC ([6]; [PMBN] 0): 16 mg/L
- MIC ([6]; [PMBN] MIC/5): 8 mg/L
- MIC ([6]; [PMBN] MIC/8): 8 mg/L
- MIC ([6]; [PMBN] MIC/10): 4 mg/L
- MIC ([7]; [PMBN] 0): 2 mg/L
- MIC ([7]; [PMBN] MIC/5): 1 mg/L
- MIC ([7]; [PMBN] MIC/8): 1 mg/L
- MIC ([7]; [PMBN] MIC/10): 1 mg/L
- MIC ([8]; [PMBN] 0): 8 mg/L
- MIC ([8]; [PMBN] MIC/5): 8 mg/L
- MIC ([8]; [PMBN] MIC/8): 16 mg/L
- MIC ([8]; [PMBN] MIC/10): 16 mg/L
- MIC ([9]; [PMBN] 0): 8 mg/L
- MIC ([9]; [PMBN] MIC/5): 2 mg/L
- MIC ([9]; [PMBN] MIC/8): 4 mg/L
- MIC ([9]; [PMBN] MIC/10): 4 mg/L
- MIC ([10]; [PMBN] 0): 64 mg/L
- MIC ([10]; [PMBN] MIC/5): 256 mg/L
- MIC ([10]; [PMBN] MIC/8): 256 mg/L
- MIC ([10]; [PMBN] MIC/10): 256 mg/L
- MIC ([11]; [PMBN] 0): 8 mg/L
- MIC ([11]; [PMBN] MIC/5): 4 mg/L
- MIC ([11]; [PMBN] MIC/8): 4 mg/L
- MIC ([11]; [PMBN] MIC/10): 4 mg/L
- MIC ([12]; [PMBN] 0): 16 mg/L
- MIC ([12]; [PMBN] MIC/5): 8 mg/L
- MIC ([12]; [PMBN] MIC/8): 32 mg/L
- MIC ([12]; [PMBN] MIC/10): 32 mg/L
- MIC ([13]; [PMBN] 0): 1 mg/L
- MIC ([13]; [PMBN] MIC/5): 2 mg/L
- MIC ([13]; [PMBN] MIC/8): 4 mg/L
- MIC ([13]; [PMBN] MIC/10): 4 mg/L
- MIC ([14]; [PMBN] 0): 256 mg/L
- MIC ([14]; [PMBN] MIC/5): 256 mg/L
- MIC ([14]; [PMBN] MIC/8): 256 mg/L
- MIC ([14]; [PMBN] MIC/10): 256 mg/L
- MIC ([15]; [PMBN] 0): 16 mg/L
- MIC ([15]; [PMBN] MIC/5): 64 mg/L
- MIC ([15]; [PMBN] MIC/8): 64 mg/L
- MIC ([15]; [PMBN] MIC/10): 64 mg/L

Structure (SMILES): C[C@@H](O)[C@H]1C(=O)N2C(C(=O)O)=C(SCCN=CN)C[C@H]12 [IM, imipenem]
- reliability of a negative prognosis with regard to resistance by membrane impermeability ([1]; general premise): 87%
- reliability of a positive prognosis with regard to resistance by membrane impermeability ([1]; general premise): 73%
- reliability of a negative prognosis with regard to resistance by membrane impermeability ([1]; refined premise): 77%
- reliability of a positive prognosis with regard to resistance by membrane impermeability ([1]; refined premise): 95%
- MIC ([2]; [PMBN] 0): 4 mg/L
- MIC ([2]; [PMBN] MIC/5): 4 mg/L
- MIC ([2]; [PMBN] MIC/8): 16 mg/L
- MIC ([2]; [PMBN] MIC/10): 8 mg/L
- MIC ([3]; [PMBN] 0): 4 mg/L
- MIC ([3]; [PMBN] MIC/5): 4 mg/L
- MIC ([3]; [PMBN] MIC/8): 8 mg/L
- MIC ([3]; [PMBN] MIC/10): 8 mg/L
- MIC ([4]; [PMBN] 0): 4 mg/L
- MIC ([4]; [PMBN] MIC/5): 1 mg/L
- MIC ([4]; [PMBN] MIC/8): 1 mg/L
- MIC ([4]; [PMBN] MIC/10): 2 mg/L
- MIC ([5]; [PMBN] 0): 4 mg/L
- MIC ([5]; [PMBN] MIC/5): 4 mg/L
- MIC ([5]; [PMBN] MIC/8): 4 mg/L
- MIC ([5]; [PMBN] MIC/10): 4 mg/L
- MIC ([6]; [PMBN] 0): 8 mg/L
- MIC ([6]; [PMBN] MIC/5): 4 mg/L
- MIC ([6]; [PMBN] MIC/8): 4 mg/L
- MIC ([6]; [PMBN] MIC/10): 4 mg/L
- MIC ([7]; [PMBN] 0): 0.25 mg/L
- MIC ([7]; [PMBN] MIC/5): 0.25 mg/L
- MIC ([7]; [PMBN] MIC/8): 0.25 mg/L
- MIC ([7]; [PMBN] MIC/10): 0.25 mg/L
- MIC ([8]; [PMBN] 0): 32 mg/L
- MIC ([8]; [PMBN] MIC/5): 16 mg/L
- MIC ([8]; [PMBN] MIC/8): 16 mg/L
- MIC ([8]; [PMBN] MIC/10): 16 mg/L
- MIC ([9]; [PMBN] 0): 8 mg/L
- MIC ([9]; [PMBN] MIC/5): 1 mg/L
- MIC ([9]; [PMBN] MIC/8): 4 mg/L
- MIC ([9]; [PMBN] MIC/10): 4 mg/L
- MIC ([10]; [PMBN] 0): 32 mg/L
- MIC ([10]; [PMBN] MIC/5): 32 mg/L
- MIC ([10]; [PMBN] MIC/8): 64 mg/L
- MIC ([10]; [PMBN] MIC/10): 32 mg/L
- MIC ([11]; [PMBN] 0): 16 mg/L
- MIC ([11]; [PMBN] MIC/5): 16 mg/L
- MIC ([11]; [PMBN] MIC/8): 16 mg/L
- MIC ([11]; [PMBN] MIC/10): 8 mg/L
- MIC ([12]; [PMBN] 0): 16 mg/L
- MIC ([12]; [PMBN] MIC/5): 8 mg/L
- MIC ([12]; [PMBN] MIC/8): 8 mg/L
- MIC ([12]; [PMBN] MIC/10): 16 mg/L
- MIC ([13]; [PMBN] 0): 4 mg/L
- MIC ([13]; [PMBN] MIC/5): 4 mg/L
- MIC ([13]; [PMBN] MIC/8): 8 mg/L
- MIC ([13]; [PMBN] MIC/10): 8 mg/L
- MIC ([14]; [PMBN] 0): 128 mg/L
- MIC ([14]; [PMBN] MIC/5): 256 mg/L
- MIC ([14]; [PMBN] MIC/8): 256 mg/L
- MIC ([14]; [PMBN] MIC/10): 128 mg/L
- MIC ([15]; [PMBN] 0): 8 mg/L
- MIC ([15]; [PMBN] MIC/5): 16 mg/L
- MIC ([15]; [PMBN] MIC/8): 8 mg/L
- MIC ([15]; [PMBN] MIC/10): 16 mg/L
